From patent US9557338B2 (SIGNAL PHARMACEUTICALS, LLC, priority 2012, dated 2017)
Read-outs that look alike come from different tables or passages of the source.

Key:
Type in all cases: cell-based
[1] = test system: GSK-3β; assay: MSD assay, GSK-3β phosphorylation in cell lysates
[2] = test system: Phospho-p70S6K (T389); assay: MSD assay, phospho-p70S6K (T389) in cell lysates
Procedure: Determination of Phospho-p70S6K (T389) in Cell Lysates.
MSD® biomarker detection assays provide a rapid and convenient method for measuring the total and phosphorylated levels of protein targets within a single small-volume sample. In the assay, an antibody for a specific protein target is coated on one electrode (or spot) per well. The samples (cell lysates) are added to the well with a solution containing the detection antibody labeled with an electrochemiluminescent (ECL) compound, MSD SULFOTAG™ label, over the course of one or more incubation periods. The total protein present in the sample binds to the capture antibodies immobilized on the working electrode surface; recruitment of the labeled detection antibody by bound phospho-p70S6K completes the sandwich. MSD Read Buffer that provides the appropriate chemical environment for ECL is added and the plate is read using an MSD SECTOR™ Imager. Inside the SECTOR Imager, a voltage is applied to the plate electrodes which cause the labels bound to the electrode surface to emit light. The instrument measures intensity of the emitted light to afford a quantitative measure of the amount of phosphorylated protein present in the sample.
Cells were plated in 96-well flat bottom plates at the required density determined for each cell line and the cells were allowed to equilibrate at 37° C., 5% CO2 overnight. The following day, the cells were treated with Compound 1 over a range of concentrations for one hour in 5% CO2 at 37° C. After the incubation period, the culture medium was removed carefully with an aspirator. The plate was placed on ice and 50 μL of 1× Tris Lysis Buffer were added to each well. The plate was placed on a shaker at 4° C. for one hour to lyse the cells. At that point, the plate was either frozen at −80° C. for later analysis or immediately assayed for phosphoproteins as described below. To monitor interassay variability, Compound 1 was compared among all plates as a reference standard.
The assay plate was incubated with 150 μL of MSD Blocking Buffer for one hour with shaking at room temperature. The plates were washed 3 times with Tris Wash Buffer. Then 35 μL of cell lysate was added to the wells and incubated for one hour with shaking at room temperature. The solution was removed from the wells and the plate was washed 3 times with wash buffer. Twenty-five microliters of the appropriate antibody solution was then incubated for one hour with shaking at room temperature. The solution was removed from the wells and the plate was washed 3 times with wash buffer. Then 150 μL of 1×MSD Read Buffer T was added to each well. The plate was read on the SECTOR Imager plate reader.

[3] = test system: Phospho-PRAS40(T246); assay: Luminex multiplex assay, Phospho-PRAS40(T246)
Summary of the method: (§1)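 Cells (PC3; HCT-116, MDA-MB-231 and HT29 with 500 ng/mL recombinant human IGF-I for the final 10 min) treated with compound or rapamycin over a concentration range for 1 h at 37° C, 5% CO2. Lysates read by bead-based Luminex sandwich immunoassay, 3 h at room temperature, RPE anti-rabbit detection, quantified against phosphoprotein standard curves.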

[4] = test system: p70S6K; assay: Luminex multiplex assay, p70S6K phosphorylation in cell lysates
[5] = test system: Phospho-GSK3β(S9); assay: Luminex multiplex assay, Phospho-GSK3β(S9)
Summary of the method: as §1

[6] = PC3 cell line, read-out: MSD GSK-3β
[7] = PC3 cell line, read-out: MSD p70S6K
[8] = PC3 cell line, read-out: Luminex PRAS40
[9] = PC3 cell line, read-out: Luminex p70S6K
[10] = PC3 cell line, read-out: Luminex GSK-3β

| Compound | IC50 [1, 6] [nM] | IC50 [2, 7] [nM] | further results |
| --- | --- | --- | --- |
| COCCN1CC(=O)Nc2ncc(-c3cc(F)c(-c4nc[nH]n4)cc3C)nc21 [C-131] | > 500 | 118 |  |
| Cc1cc(C(N)=O)ncc1-c1cnc2c(n1)N(C(C)C)C(=O)CN2 [C-118] | 3930 | 170 |  |
| CO[C@H]1CC[C@H](N2C(=O)CNc3ncc(-c4ccc(-c5nnc[nH]5)nc4C)nc32)CC1 [A-11, 1-((1r,4r)-4-methoxycyclohexyl)-7-(2-methyl-6-(4H-1,2,4-triazol-3-yl)pyridin-3-yl)-3,4-dihydropyrazino[2,3-b]pyrazin-2(1H)-one] |  |  | IC50 ([1]; HCT116 cell line, IGF, read-out: MSD GSK-3β (IGF)): 202 nM; IC50 ([1]; U87MG cell line, read-out: MSD GSK-3β): 479 nM; IC50 ([2]; HCT116 cell line, IGF, read-out: MSD p70S6K (IGF)): 157 nM; IC50 ([2]; U87MG cell line, read-out: MSD p70S6K): 93.1 nM |
| CCN1C(=O)CNc2ncc(-c3ccc4[nH]ccc4n3)nc21 [C-166] | > 500 | > 500 |  |
| Cc1cc(-c2nc[nH]n2)c(F)cc1-c1cnc2c(n1)N([C@H]1CC[C@@H](O)CC1)C(=O)CN2 [C-155] | 240 | 40 |  |
| O=C1CN(C2CCOCC2)c2nc(-c3ccc(-c4ncn[nH]4)nc3)cnc2N1 [C-125] | > 500 | 73 |  |
| O=C1CNc2ncc(-c3cccc4[nH]ccc34)nc2N1CCC1CCOCC1 [C-145] | > 500 | > 500 |  |
| COCCN1C(=O)CNc2ncc(-c3ccc(-c4ncn[nH]4)nc3)nc21 [C-151] | > 500 | 120 |  |
| Cc1cc(-c2nc[nH]n2)c(F)cc1-c1cnc2c(n1)N(CC1CCC(O)CC1)CC(=O)N2 (stereo not shown) [C-143] | > 500 | 4 |  |
| Cc1c(-c2cnc3c(n2)N(C2CCOCC2)CC(=O)N3)ccc(-c2nc[nH]n2)c1F [C-111] | > 150 | 58 |  |
| CCN1C(=O)CNc2ncc(-c3cc(F)c(-c4nc[nH]n4)cc3C)nc21 [C-127] | 33 | 4 |  |
| Cc1cc(-c2nc[nH]n2)c(F)cc1-c1cnc2c(n1)N(C1CCOCC1)CC(=O)N2 [C-122] | 323 | 6 |  |
| O=C1CNc2ncc(-c3ccc(-c4nc[nH]n4)nc3)nc2N1C1CCOCC1 [C-152] | > 500 | 20 |  |
| O=C1CN(C2CCC(O)CC2)c2nc(-c3ccc(-c4nc[nH]n4)nc3)cnc2N1 (stereo not shown) [C-153] | > 500 | > 500 |  |
| COCCN1C(=O)CNc2ncc(-c3cc(F)c(-c4nc[nH]n4)cc3C)nc21 [C-129] | > 500 | 1 |  |
| COC1CCC(CN2CC(=O)Nc3ncc(-c4ccc(-c5nc[nH]n5)nc4)nc32)CC1 (stereo not shown) [C-158] |  | 36 |  |
| CNc1ccc(-c2cnc3c(n2)N(CCC2CCOCC2)C(=O)CN3)cn1 [C-114] | 2030 | 184 |  |
| Cc1cc(-c2nc[nH]n2)c(F)cc1-c1cnc2c(n1)N(C(C)C)C(=O)CN2 [C-128] | 1 | 21 |  |
| O=C1CN(CC2CCC(O)CC2)c2nc(-c3ccc(-c4nc[nH]n4)nc3)cnc2N1 (stereo not shown) [C-154] | > 5000 | 1520 |  |
| O=C1CNc2ncc(-c3cccc4[nH]cnc34)nc2N1CCC1CCOCC1 [C-162] | > 5000 | 4750 |  |
| Cc1cc(-c2nc[nH]n2)ncc1-c1cnc2c(n1)N(CC1CCOCC1)CC(=O)N2 [C-164] | 275 | 1 |  |

| Compound | IC50 [1, 6] [nM] | IC50 [2, 7] [nM] | further results |
| --- | --- | --- | --- |
| CCN1CC(=O)Nc2ncc(-c3ccc(-c4nc[nH]n4)nc3)nc21 [C-124] | > 500 | 289 |  |
| Nc1cc(-c2cnc3c(n2)N(CCC2CCOCC2)C(=O)CN3)ccn1 [C-115] | > 500 | > 500 |  |
| COC1CCC(N2CC(=O)Nc3ncc(-c4ccc(-c5ncn[nH]5)nc4)nc32)CC1 (stereo not shown) [C-136] | > 500 | 82 |  |
| O=C1CN(CC2CCC(O)CC2)c2nc(-c3ccc(-c4nc[nH]n4)nc3)cnc2N1 (stereo not shown) [C-149] | > 5000 | 173 |  |
| Cc1cc(-c2nc[nH]n2)ncc1-c1cnc2c(n1)N(C(C)C)C(=O)CN2 [C-121] | 15 |  |  |
| COC1CCC(N2CC(=O)Nc3ncc(-c4cc(F)c(-c5ncn[nH]5)cc4C)nc32)CC1 (stereo not shown) [C-132] | > 500 | 222 |  |
| CCN1C(=O)CNc2ncc(-c3ccc(-c4ncn[nH]4)nc3)nc21 [C-150] | > 500 | 38 |  |
| Cc1cc(-c2nc[nH]n2)c(F)cc1-c1cnc2c(n1)N(CC1CCC(O)CC1)C(=O)CN2 (stereo not shown) [C-147] | > 500 | < 1.5 |  |
| COCCN1CC(=O)Nc2ncc(-c3ccc(-c4nc[nH]n4)nc3)nc21 [C-135] | > 1500 | > 1500 |  |
| CC(C)N1CC(=O)Nc2ncc(-c3ccc(-c4nc[nH]n4)nc3)nc21 [C-134] | > 500 | 172 |  |
| O=C1CNc2ncc(-c3ccnc(O)c3)nc2N1CCC1CCOCC1 [C-126] | 1140 | 480 |  |
| COC1CCC(CN2C(=O)CNc3ncc(-c4cc(F)c(-c5nc[nH]n5)cc4C)nc32)CC1 (stereo not shown) [C-167] | < 1.5 | < 1.5 |  |
| O=C1CNc2ncc(-c3ccc(-c4nc[nH]n4)nc3)nc2N1CC1CCC(O)CC1 (stereo not shown) [C-141] |  | 42 |  |
| CO[C@H]1CC[C@@H](CN2C(=O)CNc3ncc(-c4ccc(-c5nc[nH]n5)nc4)nc32)CC1 [C-165] | 3 |  |  |
| Cc1cc(-c2nc[nH]n2)c(F)cc1-c1cnc2c(n1)N(CC1CCC(O)CC1)CC(=O)N2 (stereo not shown) [C-157] |  | 37 |  |
| CC(C)(O)c1ccc(-c2cnc3c(n2)N(CC2CCOCC2)CC(=O)N3)cn1 [A-1, 6-(6-(2-hydroxypropan-2-yl)pyridin-3-yl)-4-((tetrahydro-2H-pyran-4-yl)methyl)-3,4-dihydropyrazino[2,3-b]pyrazin-2(1H)-one] |  |  | IC50 ([3]; Homo sapiens, HCT-116, HCT116 cell line, IGF, read-out: Luminex PRAS40 (IGF)): 2610 nM; IC50 ([3]; Homo sapiens, U-87 MG, U87MG cell line, read-out: Luminex PRAS40): 1660 nM; IC50 ([4]; Homo sapiens, HCT-116, HCT116 cell line, IGF, read-out: Luminex p70S6K (IGF)): 2120 nM; IC50 ([4]; Homo sapiens, U-87 MG, U87MG cell line, read-out: Luminex p70S6K): 526 nM; IC50 ([5]; Homo sapiens, HCT-116, HCT116 cell line, IGF, read-out: Luminex GSK-3β (IGF)): 1740 nM; IC50 ([5]; Homo sapiens, U-87 MG, U87MG cell line, read-out: Luminex GSK-3β): 1220 nM |
| Nc1ccc(-c2cnc3c(n2)N(CCC2CCOCC2)C(=O)CN3)cn1 [C-100] |  |  | IC50 [3, 8]: 564 nM; IC50 [4, 9]: 15 nM; IC50 [5, 10]: 608 nM |
| COC1CCC(CN2CC(=O)Nc3ncc(-c4ccc(-c5ncn[nH]5)nc4)nc32)CC1 (stereo not shown) [C-156] |  | 10 |  |
| O=C1CNc2ncc(-c3ccc4cn[nH]c4c3)nc2N1CCC1CCOCC1 [C-75] |  |  | IC50 [3, 8]: > 1500 nM; IC50 [4, 9]: 173 nM; IC50 [5, 10]: > 1500 nM |
| CCN1C(=O)CNc2ncc(-c3cccc4[nH]ncc34)nc21 [C-102] |  |  | IC50 [3, 8]: > 1500 nM; IC50 [4, 9]: > 1500 nM; IC50 [5, 10]: > 1500 nM |
| CC(C)(O)c1ccc(-c2cnc3c(n2)N(C2CCOCC2)C(=O)CN3)cn1 [C-47] |  |  | IC50 [3, 8]: 1470 nM; IC50 [4, 9]: 497 nM; IC50 [5, 10]: 3110 nM |
